Converted amounts (≈) assume the structure as drawn. The source made the active and inactive calls. The calls are words filed in the database; no cut-off is given here.
Columns and labels:
[1] = test system: Mycolicibacterium fortuitum; assay: Antimicrobial activity against Mycobacterium fortuitum; type: functional
[2] = test system: Escherichia coli; assay: Antimicrobial activity against Escherichia coli; type: functional
[3] = Modulation of alternative complement pathway system assessed as hemoglobin release by spectrophotometry
[4] = test system: Enterobacter cloacae; assay: Antimicrobial activity against Enterobacter cloacae; type: functional
[5] = test system: Candida albicans; assay: Antimicrobial activity against Candida albicans; type: functional
[6] = Antioxidant activity assessed as superoxide radical anion scavenging activity; type: functional
[7] = test system: Pseudomonas aeruginosa; assay: Antimicrobial activity against Pseudomonas aeruginosa; type: functional
[8] = test system: Salmonella paratyphi; assay: Antimicrobial activity against Salmonella paratyphi; type: functional, Salmonella enterica subsp. enterica serovar Paratyphi A; conditions: Salmonella enterica
[9] = test system: Staphylococcus aureus; assay: Antimicrobial activity against Staphylococcus aureus; type: functional
[10] = Selectivity index, ratio of CC50 for human MT4 cells to IC50 for HIV infected in human MT4 cells; type: functional
[11] = test system: Simplexvirus; assay: Antiviral activity against HSV up to 200 ug/mL by extracellular virucidal assay; type: functional, organism-based
[12] = Cytotoxicity against human MT4 cells by MTT assay; type: cell-based
[13] = Modulation of classical complement pathway system assessed as hemoglobin release by spectrophotometry
[14] = test system: Human immunodeficiency virus; assay: Antiviral activity against HIV infected in human MT4 cells assessed as inhibition of virus-induced cytopathic effect by MTT assay; type: functional, organism-based; conditions: Human immunodeficiency virus 1, MT4

For Oc1cc(O)c2c(c1)O[C@H](c1ccc(O)c(O)c1)[C@@H](O)[C@@H]2c1c(O)cc2c(c1O)C[C@@H](O)[C@@H](c1ccc(O)c(O)c1)O2, which MBC [1] is on record?
Its MBC is over 100 µg/mL.

What about the MIC [1] of the same compound?
The MIC was over 100 µg/mL.

What about the MBC [2] of the same compound?
The MBC was over 100 µg/mL.

What about the MIC [2] of the same compound?
The MIC was over 100 µg/mL.

And the IC50 [3]?
Its IC50 is 83.7 µM.

And the MBC [4]?
Its MBC is over 100 µg/mL.

What about the MIC [4] of the same compound?
The MIC was over 100 µg/mL.

What about the MBC [5] of the same compound?
The MBC was over 100 µg/mL.

What about the MIC [5] of the same compound?
Its MIC is over 100 µg/mL.

And the IC50 [6]?
The IC50 was 32.9 µM.

What about the MBC [7] of the same compound?
The MBC was over 100 µg/mL.

What about the MIC [7] of the same compound?
The MIC was over 100 µg/mL.

And the MBC [8]?
The MBC was over 100 µg/mL.

And the MIC [8]?
Its MIC is over 100 µg/mL.

And the MBC [9]?
Its MBC is over 100 µg/mL.

What about the MIC [9] of the same compound?
Its MIC is over 100 µg/mL.

And the “Ratio CC50/IC50” value [10]?
The value was 8.

What about the Activity [11] of the same compound?
The Activity was “inactive”.

And the CC50 [12]?
The CC50 was 127 µg/mL (≈ 219 µM).

What about the IC50 [13] of the same compound?
Its IC50 is 19.7 µM.

And the IC50 [14]?
Its IC50 is 19.6 µg/mL (≈ 33.9 µM).

Which results are given for Oc1cc(O)c2c(c1)O[C@H](c1cc(O)c(Oc3cc(O)c4c(c3)O[C@H](c3cc(O)c(O)c(O)c3)[C@H](O)C4)c(O)c1)[C@@H](O)C2?
MBC [1]: > 100 µg/mL; MIC [1]: > 100 µg/mL; MBC [2]: > 100 µg/mL; MIC [2]: > 100 µg/mL; IC50 [3]: 86 µM; MBC [4]: > 100 µg/mL; MIC [4]: > 100 µg/mL; MBC [5]: > 100 µg/mL; MIC [5]: > 100 µg/mL; IC50 [6]: 2 µM; MBC [7]: > 100 µg/mL; MIC [7]: > 100 µg/mL; MBC [8]: > 100 µg/mL; MIC [8]: > 100 µg/mL; MBC [9]: > 100 µg/mL; MIC [9]: > 100 µg/mL; IC50 [13]: 14.6 µM

For Oc1cc(O)c2c(c1)O[C@H](c1ccc(O)c(O)c1)[C@@H](O)[C@@H]2c1c(O)cc(O)c2c1O[C@H](c1ccc(O)c(O)c1)[C@@H](O)C2, which MBC [1] is on record?
The MBC was over 100 µg/mL.

What about the MIC [1] of the same compound?
The MIC was over 100 µg/mL.

What about the MBC [2] of the same compound?
Its MBC is over 100 µg/mL.

And the MIC [2]?
The MIC was over 100 µg/mL.

And the Activity [3]?
Its Activity is “inactive”.

What about the MBC [4] of the same compound?
The MBC was over 100 µg/mL.

What about the MIC [4] of the same compound?
The MIC was over 100 µg/mL.

What about the MBC [5] of the same compound?
The MBC was over 100 µg/mL.

And the MIC [5]?
Its MIC is over 100 µg/mL.

And the IC50 [6]?
The IC50 was 41.3 µM.

And the MBC [7]?
The MBC was over 100 µg/mL.

What about the MIC [7] of the same compound?
Its MIC is over 100 µg/mL.

What about the MBC [8] of the same compound?
The MBC was over 100 µg/mL.

And the MIC [8]?
Its MIC is over 100 µg/mL.

And the MBC [9]?
The MBC was over 100 µg/mL.

What about the MIC [9] of the same compound?
Its MIC is over 100 µg/mL.

What about the “Ratio CC50/IC50” value [10] of the same compound?
The value was 5.

And the Activity [11]?
The Activity was “inactive”.

And the CC50 [12]?
Its CC50 is 118 µg/mL (≈ 204 µM).

What about the IC50 [13] of the same compound?
Its IC50 is 37.7 µM.

And the IC50 [14]?
The IC50 was 27 µg/mL (≈ 46.7 µM).

For Oc1cc(O)c2c(c1)O[C@H](c1ccc(O)c(O)c1)[C@H](O)C2 [(-)-EPICATECHIN], which MBC [1] is on record?
The MBC was over 100 µg/mL.

What about the MIC [1] of the same compound?
Its MIC is over 100 µg/mL.

What about the MBC [2] of the same compound?
The MBC was over 100 µg/mL.

And the MIC [2]?
Its MIC is over 100 µg/mL.

And the Activity [3]?
Its Activity is “inactive”.

And the MBC [4]?
Its MBC is over 100 µg/mL.

And the MIC [4]?
The MIC was over 100 µg/mL.

What about the MBC [5] of the same compound?
The MBC was over 100 µg/mL.

What about the MIC [5] of the same compound?
Its MIC is over 100 µg/mL.

What about the IC50 [6] of the same compound?
Its IC50 is 18.3 µM.

What about the MBC [7] of the same compound?
The MBC was over 100 µg/mL.

And the MIC [7]?
Its MIC is over 100 µg/mL.

What about the MBC [8] of the same compound?
Its MBC is over 100 µg/mL.

What about the MIC [8] of the same compound?
Its MIC is over 100 µg/mL.

And the MBC [9]?
The MBC was over 100 µg/mL.

What about the MIC [9] of the same compound?
The MIC was over 100 µg/mL.

And the “Ratio CC50/IC50” value [10]?
The value was 4.

What about the CC50 [12] of the same compound?
Its CC50 is 136 µg/mL (≈ 469 µM).

What about the IC50 [13] of the same compound?
Its IC50 is 656 µM.

And the IC50 [14]?
The IC50 was 34.1 µg/mL (≈ 117 µM).

For Oc1cc(O)c2c(c1)O[C@H](c1ccc(O)c(O)c1)[C@@H](O)C2 [CIANIDANOL], which MBC [1] is on record?
Its MBC is over 100 µg/mL.

What about the MIC [1] of the same compound?
Its MIC is over 100 µg/mL.

What about the MBC [2] of the same compound?
The MBC was over 100 µg/mL.

What about the MIC [2] of the same compound?
The MIC was over 100 µg/mL.

And the Activity [3]?
The Activity was “inactive”.

What about the MBC [4] of the same compound?
Its MBC is over 100 µg/mL.

And the MIC [4]?
Its MIC is over 100 µg/mL.

And the MBC [5]?
Its MBC is over 100 µg/mL.

And the MIC [5]?
Its MIC is over 100 µg/mL.

And the IC50 [6]?
Its IC50 is 13.1 µM.

What about the MBC [7] of the same compound?
The MBC was over 100 µg/mL.

What about the MIC [7] of the same compound?
Its MIC is over 100 µg/mL.

What about the MBC [8] of the same compound?
Its MBC is over 100 µg/mL.

And the MIC [8]?
Its MIC is over 100 µg/mL.

What about the MBC [9] of the same compound?
The MBC was over 100 µg/mL.

And the MIC [9]?
Its MIC is over 100 µg/mL.

And the “Ratio CC50/IC50” value [10]?
The value was under 1.

And the CC50 [12]?
Its CC50 is 86.8 µg/mL (≈ 299 µM).

What about the IC50 [13] of the same compound?
The IC50 was 647 µM.

What about the IC50 [14] of the same compound?
Its IC50 is over 86.8 µg/mL.

Which MBC [1] does the source give for Oc1cc(O)c2c(c1)O[C@H](c1ccc(O)c(O)c1)[C@H](O)[C@H]2c1c(O)cc(O)c2c1O[C@H](c1ccc(O)c(O)c1)[C@@H](O)C2 [PROCYANIDIN B1] here?
The MBC was over 100 µg/mL.

And the MIC [1]?
Its MIC is over 100 µg/mL.

What about the MBC [2] of the same compound?
The MBC was over 100 µg/mL.

What about the MIC [2] of the same compound?
The MIC was over 100 µg/mL.

And the IC50 [3]?
The IC50 was 72 µM.

And the MBC [4]?
Its MBC is over 100 µg/mL.

What about the MIC [4] of the same compound?
The MIC was over 100 µg/mL.

What about the MBC [5] of the same compound?
Its MBC is over 100 µg/mL.

What about the MIC [5] of the same compound?
The MIC was over 100 µg/mL.

And the MBC [7]?
The MBC was over 100 µg/mL.

What about the MIC [7] of the same compound?
The MIC was over 100 µg/mL.

What about the MBC [8] of the same compound?
Its MBC is over 100 µg/mL.

What about the MIC [8] of the same compound?
Its MIC is over 100 µg/mL.

What about the MBC [9] of the same compound?
Its MBC is over 100 µg/mL.

And the MIC [9]?
Its MIC is over 100 µg/mL.

And the IC50 [13]?
Its IC50 is 31.3 µM.

What does the source list for O=C(/C=C/c1ccc(O)c(O)c1)O[C@H](Cc1ccc(O)c(O)c1)C(=O)O [ROSMARINIC ACID]?
IC50 [3]: 408 µM; IC50 [13]: 21.9 µM

What does the source list for Cc1cn([C@H]2C[C@H](N=[N+]=[N-])[C@@H](CO)O2)c(=O)[nH]c1=O [ZIDOVUDINE]?
CC50 [12]: 2.58 µg/mL (≈ 9.66 µM); IC50 [14]: 0.0002 µg/mL (≈ 0.000748 µM)

— ChEMBL document CHEMBL1144064, “Biological evaluation of proanthocyanidin dimers and related polyphenols” (J Nat Prod, 1999)
